Reference: patent US7834024B2, “Compositions and methods for inhibition of the JAK pathway” (Rigel Pharmaceuticals, Inc., priority 2007, dated 2010)
Like-named read-outs stand apart in the source and are kept apart here.

What was measured:
[1] = test system: Ramos B-Cell Line Stimulated with IL-4 (JAK-1 and JAK-3 / Stat-6, CD23); assay: Assay for Ramos B-Cell Line Stimulated with IL-4 (CD23 upregulation, FACS); type: cell-based; conditions: human Ramos B cells, compound 1 hour, IL-4 50 units/mL for 20-24 hours, anti-CD23-PE FACS, read-out: Example 2 (IC50)
Procedure, shortened: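 Human Ramos B cells (5×10^4 per point, RPMI with 5% serum) pre-incubated 1 hour at 37° C with compound or DMSO, then stimulated with IL-4 at 50 units/mL final for 20-24 hours. CD23 upregulation measured by flow cytometry.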

[2] = test system: JAK2 (BaF3 V617F cells, UKE-1); assay: Proliferation Assay (Cell Titer-Glo, 72 hours); type: cell-based; conditions: proliferation 72 hours, BaF3 V617F or UKE-1 cells, cell line not given, read-out: Example 7 (IC50)
Procedure: • Dimethyl Sulfoxide (DMSO) (Sigma-Aldrich, Cat No. D2650) (Control) • Iscove's DMEM, ATCC Catalog #30-2005 • 1 M HEPES, Cellgro Catalog #25-060-Cl (100 mL) • 100 mM Sodium Pyruvate, Cellgro Catalog #25-000-Cl (100 mL) • Penicillin/Streptomycin, 10000 U/mL each, Cellgro Catalog #30-002-Cl (100 mL) • RPMI 1640 (Cellgro, Cat No. 10-040-CM) • Fetal Bovine Serum (JRH, Cat No. 12106-500M) • Donor Equine Serum, Hyclone Catalog #SH30074.02 (100 mL) • 50 μM hydrocortisone solution, Sigma Catalog #H6909-10 ml (10 mL) Culture Conditions
BaF3 V617F cells are maintained and plated in RPMI with 10% FBS. Plating density for these cells is 1×10^5 cells/mL.
UKE-1 are maintained and plated in Iscove's DMEM containing 10% FBS, 10% equine serum, 1% penicillin/streptomycin and 1 uM hydrocortisone. Plating density for these cells is 0.4×10^6 cells/mL
The cells were resuspended in a corresponding medium at a required cell density (see above). 100 μ of cell suspension was added to each well of a flat bottom 96 well white plate. The compound was serially diluted in DMSO from 5 mM in 3-fold dilutions, and then diluted 1:250 in the RPMI 1640 medium containing 5% FBS and pen/strep. 100 μL of resulting 2× compound solution was added per well in duplicate and the cells were allowed to proliferate for 72 hours at 37° C.
Proliferation was measured using Cell Titer-Glo. The substrate was thawed and allowed to come to room temperature. After removal of top 100 μL of medium from each well, 100 μL of the premixed Cell Titer-Glo reagent was added to each well. The plates were mixed on an orbital shaker for three minutes to induce lysis and incubated at ambient temperature for an additional five minutes to allow the signal to equilibrate. The Luminescence was read on the Wallac Plate Reader.
The results of the ability of the compounds of the invention to inhibit JAK2 activity, when tested in the above assay, are shown in the following Table IX wherein the level of activity (i.e. the IC50) for each compound is indicated in Table IX. Thae compound numbers in Table IX Refers to the compound disclosed herein as being preparded hy the methods disclosed herein: […]

| Compound | IC50 [1] [nM] | IC50 [2] [nM] | IC50 ([1]; Homo sapiens, Ramos) [nM] |
| --- | --- | --- | --- |
| 5-Methyl-N2-(I-oxo-1,2,3,4-tetrahydroisoquinolin-7-yl)-N4-[3-oxo-2,2,4-trimethyl-5-pyrido[1,4]oxazin-6-yl]-2,4-pyrimidinediamine [IV-3] | 231 | 2150 |  |
| CN1CCN(C(=O)c2ccc(Nc3ncc(F)c(Nc4ccc(OCC#N)cc4)n3)cc2)CC1 [Compound I-31, N4-(4-Cyanomethoxyphenyl)-5-fluoro-N2-[4-((4-methylpiperazin-1-yl)carbonyl)phenyl]-2,4-pyrimidinediamine] |  | 1260 | 62.3 |
| CN1CCN(c2ccc(Nc3ncc(F)c(Nc4ccc(OCC#N)cc4)n3)cc2C#N)CC1 [Compound I-41, N4-(4-Cyanomethoxyphenyl)-N2-[3-cyano-4-(4-methylpiperazin-1-yl)phenyl]-5-fluoro-2,4-pyrimidinediamine] |  | 388 | 3.4 |
| N#CCOc1cccc(Nc2nc(Nc3ccc(C(N)=O)cc3)ncc2F)c1 [Compound I-44, N2-(4-Aminocarbonylphenyl)-N4-(3-cyanomethoxyphenyl)-5-fluoro-2,4-pyrimidinediamine] |  | 567 | 21.7 |
| Cc1cnc(Nc2cccc(C#N)c2)nc1Nc1ccc2c(c1)NC(=O)CO2 [II-6, N2-(3-Cyanophenyl)-5-methyl-N4-(3-oxo-2H,4H-benzo[1,4]oxazin-6-yl)-2,4-pyrimidinediamine] |  | 68300 | 69.7 |
| Cc1cnc(Nc2cccc(C#N)c2)nc1Nc1ccc2c(c1)N(C)C(=O)CS2 [II-7, N2-(3-Cyanophenyl)-5-methyl-N4-(4-methyl-3-oxo-2H-benzo[1,4]thiazin-6-yl)-2,4-pyrimidinediamine] |  | 1430 | 116 |
| CNC(=O)COc1cccc(Nc2ncc(C)c(Nc3ccc4c(c3)N(C)C(=O)CS4)n2)c1 [II-8, 5-Methyl-N2-[3-(N-methylaminocarbonylmethyleneoxy)phenyl]-N4-(4-methyl-3-oxo-2H-benzo[1,4]thiazin-6-yl)-2,4-pyrimidinediamine] | 56.4 | 223 |  |
| Cc1cnc(Nc2cccc(C#N)c2)nc1Nc1ccc2c(c1)N(C)C(=O)CO2 [II-10, N2-(3-Cyanophenyl)-5-methyl-N4-(4-methyl-3-oxo-2H-benzo[1,4]oxazin-6-yl)-2,4-pyrimidinediamine] |  | 980 | 116 |
| CNC(=O)COc1cc(Nc2ncc(F)c(Nc3ccc4c(c3)NC(=O)C(C)(C)S4)n2)cc(OC)c1OC [II-17, N2-[4,5-Dimethoxy-3-(N-methylaminocarbonylmethyleneoxy)phenyl]-N4-(2,2-dimethyl-3-oxo-4H-benzo[1,4]thiazin-6-yl)-5-fluoro-2,4-pyrimidinediamine] | 57.3 | 160 |  |
| CNC(=O)COc1cc(Nc2ncc(F)c(Nc3ccc4c(c3)NC(=O)C(C)(C)O4)n2)cc(OC)c1OC [II-18, N2-[4,5-Dimethoxy-3-(N-methylaminocarbonylmethyleneoxy)phenyl]-N4-(2,2-dimethyl-3-oxo-benzo[1,4]oxazin-6-yl)-5-fluoro-2,4-pyrimidinediamine] | 25.1 | 653 |  |
| CNC(=O)COc1cc(Nc2ncc(F)c(Nc3ccc4c(n3)NCC(C)(C)O4)n2)ccc1OC [II-32, N4-(3,4-Dihydro-2,2-dimethyl-2H-5-pyrido[1,4]oxazin-6-yl)-5-fluoro-N2-[4-methoxy-3-(N-methylaminocarbonylmethoxy)phenyl]-2,4-pyrimidinediamine] | 89.6 | 1090 |  |
| CNC(=O)COc1cc(Nc2ncc(F)c(Nc3ccc4c(n3)NCC(C)(C)O4)n2)cc(OC)c1OC [II-33, N4-(3,4-Dihydro-2,2-dimethyl-4H-5-pyrido[1,4]oxazin-6-yl)-N2-[3,4-dimethoxy-5-(N-methylaminocarbonylmethoxy)phenyl]-5-fluoro-2,4-pyrimidinediamine] | 75.2 | 489 |  |
| CNC(=O)COc1cccc(Nc2ncc(C)c(Nc3ccc4c(c3)N(C)C(=O)C(F)(F)O4)n2)c1 [II-37, N4-(2,2-Difluoro-4-methyl-3-oxo-4H-benzo[1,4]oxazin-6-yl)-5-methyl-N2-[3-(N-methylaminocarbonylmethyleneoxy)phenyl]-2,4-pyrimidinediamine] | 80.2 | 492 |  |
| Cc1cnc(Nc2cccc(C(N)=O)c2)nc1Nc1ccc2c(c1)N(C)C(=O)C(C)(C)O2 [II-39, N2-(3-Aminocarbonylphenyl)-5-methyl N4-(2,2,4-trimethyl-3-oxo-benz[1,4]oxazin-6-yl)-2,4-pyrimidinediamine] |  | 550 | 162 |
| Cc1cnc(Nc2cccc(C(N)=O)c2)nc1Nc1ccc2c(c1)N(C)C(=O)CS2 [II-41, N2-(3-Aminocarbonylphenyl)-N4-(3,4-dihydro-2H-4-methyl-3-oxo-benz[1,4]thiazin-6-yl)-5-methyl-2,4-pyrimidinediamine] | 129 | 2070 |  |
| Cc1cnc(Nc2cccc(C(N)=O)c2)nc1Nc1ccc2c(c1)N(C)C(=O)C(C)(C)S2 [II-45, N2-(3-Aminocarbonylphenyl)-5-methyl-N4-(2,2,4-trimethyl-3-oxo-benz[1,4]thiazin-6-yl)-2,4-pyrimidinediamine] |  | 432 | 179 |
| CNC(=O)COc1cccc(Nc2ncc(C)c(Nc3ccc4c(c3)NC(=O)C(F)(F)O4)n2)c1 [II-49, N4-(2,2-Difluoro-3-oxo[4H]benzo[1,4]oxazin-6-yl)-5-methyl-N2-[3-(N-Methylaminocarbonylmethyleneoxy)phenyl]-2,4-pyrimidinediamine] | 98 | 16400 |  |
| CN1C(=O)C(C)(C)Oc2ccc(Nc3nc(Nc4ccc5c(c4)C(=O)NCC5)ncc3F)nc21 [IV-2, 5-Fluoro-N2-(1-oxo-1,2,3,4-tetrahydroisoquinolin-7-yl)-N4-[3-oxo-2,2,4-trimethyl-5-pyrido[1,4]oxazin-6-yl]-2,4-pyrimidinediamine] |  | 4120 | 748 |
| N2-(3-Aminocabonylphenyl)-N4-(3,4-dihydro-2H-4-methyl-3-oxo-5-pyrido[1,4]oxazin-6-yl)-2,4-pyrimidinediamine [II-42] | 180 | 1640 |  |
